# Source: PMC4967823, “A single amino acid substitution in a chitinase of the legume Medicago truncatula is sufficient to gain Nod-factor hydrolase activity” (Open Biology, 2016)
# Biological target: T1, MtCHIT5b (Medicago truncatula, UniProt A0A072UR65)
# T1 construct: gene CHIT5B; without predicted signal peptide, N-terminal 6xHis tag (pET28b or pET32a for variants), E. coli BL21(DE3), Ni-NTA
# Assay: reverse-phase HPLC (C18) hydrolysis assay
# Format: biochemical
# Conditions: 25 mM sodium acetate pH 5.0, 37 C
# Description: reverse-phase HPLC (C18) hydrolysis assay on MtCHIT5b
# T1 sequence (A0A072UR65 27-379): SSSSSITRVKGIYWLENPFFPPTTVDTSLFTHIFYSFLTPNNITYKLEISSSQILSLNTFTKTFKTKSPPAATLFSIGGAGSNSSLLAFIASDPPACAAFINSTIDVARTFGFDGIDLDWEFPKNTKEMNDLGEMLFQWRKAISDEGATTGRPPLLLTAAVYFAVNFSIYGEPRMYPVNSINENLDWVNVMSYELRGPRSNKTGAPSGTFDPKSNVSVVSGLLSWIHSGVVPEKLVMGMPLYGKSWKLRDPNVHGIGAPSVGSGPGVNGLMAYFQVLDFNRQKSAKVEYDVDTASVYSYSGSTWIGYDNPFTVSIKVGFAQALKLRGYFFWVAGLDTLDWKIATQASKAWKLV
row,Km [µM],SMILES
1,96.9 ± 18.8,"CCCCCC/C=C\CCCCC/C=C/C(=O)N[C@H]1[C@H](O[C@H]2[C@H](O)[C@@H](NC(C)=O)[C@H](O[C@H]3[C@H](O)[C@@H](NC(C)=O)[C@H](O[C@H]4[C@H](O)[C@@H](NC(C)=O)C(O)O[C@@H]4COS(=O)(=O)O)O[C@@H]3CO)O[C@@H]2CO)O[C@H](COC(C)=O)[C@@H](O)[C@@H]1O (some centres unmarked) [NodSm-IV(C16 : 2, Ac, S)]"
2,58.6 ± 11.4,"CCCCCC/C=C\CCCCC/C=C/C(=O)N[C@H]1[C@H](O[C@H]2[C@H](O)[C@@H](NC(C)=O)[C@H](O[C@H]3[C@H](O)[C@@H](NC(C)=O)[C@H](O[C@H]4[C@H](O)[C@@H](NC(C)=O)C(O)O[C@@H]4COS(=O)(=O)O)O[C@@H]3CO)O[C@@H]2CO)O[C@H](CO)[C@@H](O)[C@@H]1O (some centres unmarked) [NodSm-IV(C16 : 2, S)]"
